Data as given in patent US20080280851A1 (Clavis Pharma AS, priority 2005, published 2008).
Read-outs that look alike come from different tables or passages of the source. Marks after values point to notes of the source that are not given here.

Assays:
[1] = system: Colon 6044 (human colon carcinoma); assay: Antitumour activity in Co6044 after oral administration, different dosing schedules (Table 4); assay type: in vivo, NCR: nu/nu female mice; settings: for BWC / Toxic deaths (d) / Optimum T/C (on day): Oral; for Toxic deaths (d): 7 mice
From the text: Antitumour Activity of Elaidic Acid (5′)-Gemcitabine Ester in Co6044 after Oral Administration

[2] = Maximum tolerated dose, every third day repeated five times; assay type: in vivo, mice; settings: administered every third day
From the text: This is shown below by the experiments presented in table 1 and table 2 using different mice strains and also different human colon xenografts.

[3] = system: Colon 5776 (human colon carcinoma); assay: Antitumour activity in human colon xenograft Co5776, IP treatment; settings: for Toxic deaths (d): D8, 11, 14, 17, 20, 8 mice; for antitumour activity in terms of reductions in tumour growth: gemcitabine 120 mg/kg, elaidic acid (5′)-gemcitabine ester 40 mg/kg, FIG. 1
From the text: (§1) Human colon cancer Co5776 was inserted to Ncr:nu/nu female mice subcutaneously, and treatment started when tumours reached a mean volume of 100 mm^3.

[4] = system: Colon 6044 (human colon carcinoma); assay: Antitumour activity in Co6044 after oral administration (Table 3); settings: for BWC D13 / Toxic deaths (d) / Optimum T/C (on day): Oral, Q3 × 5
[5] = system: Co6044 (human colon carcinoma); assay: Antitumour activity in human colon cancer xenograft Co6044, IP treatment; settings: for antitumor effect: IP every third day for five times, ester 40 mg/kg, gemcitabine 120 mg/kg; for Toxic deaths (d): 8 mice
From the text: (§2) Treatment started when the tumours reached a mean volume of 100 mm^3.

[6] = system: Colon 5776 (human colon carcinoma); settings: mouse, in vivo, ip, 120 mg/kg
From the text: as §1

[7] = system: Co6044 (human colon carcinoma); settings: mouse, in vivo, ip, 120 mg/kg
From the text: as §2

[8] = system: Colon 6044 (human colon carcinoma); settings: mouse, in vivo, po
[9] = IP, 40 mg/kg, D8, 11, 14, 17, 20
[10] = IP, 120 mg/kg, D8, 11, 14, 17, 20

## CCCCCCCC/C=C/CCCCCCCC(=O)OC[C@H]1O[C@@H](n2ccc(N)nc2=O)C(F)(F)[C@@H]1O [Elaidic acid (5′)-gemcitabine ester, elaidic acid (5′)-gemcitabine ester]
[1]; 5 mg/kg, D7-11
  BWC: −3%
  Toxic deaths (d): 0
[1]; 5 mg/kg, D7-11, on day 28
  Optimum T/C (on day): 10 (28)* %
[1]; 10 mg/kg, D7, 10, 13, 16, 19
  BWC: −1%
  Toxic deaths (d): 0
[1]; 10 mg/kg, D7, 10, 13, 16, 19, on day 24
  Optimum T/C (on day): 35 (24)* %
[1]; 10 mg/kg, D7-11
  BWC: −5%
  Toxic deaths (d): 0
[1]; 10 mg/kg, D7-11, on day 17
  Optimum T/C (on day): 8 (17)* %
[1]; 15 mg/kg, D7, 10, 13, 16, 19
  BWC: −1%
  Toxic deaths (d): 0
[1]; 15 mg/kg, D7, 10, 13, 16, 19, on day 24
  Optimum T/C (on day): 27 (24)* %
[1]; 20 mg/kg, D7, 10, 13, 16, 19
  BWC: −3%
[1]; 20 mg/kg, D7, 10, 13, 16, 19, death on day 17
  Toxic deaths (d): 1 (17)
[1]; 20 mg/kg, D7, 10, 13, 16, 19, on day 24
  Optimum T/C (on day): 16 (24)* %
[1]; 50 mg/kg, D7, 14
  BWC: 0%
  Toxic deaths (d): 0
[1]; 50 mg/kg, D7, 14, on day 17
  Optimum T/C (on day): 22 (17)* %
[1]; 100 mg/kg, D7, 14
  BWC: −4%
[1]; 100 mg/kg, D7, 14, death on day 20
  Toxic deaths (d): 1 (20)
[1]; 100 mg/kg, D7, 14, on day 24
  Optimum T/C (on day): 4 (24)* %
[1]; oral, all tested schedules
  antitumour activity after oral administration: High dose dependent activity
[1]; oral, all the tested schedules
  significance of antitumour activity: Significant antitumour activity
[2]
  maximum tolerated dose: ~40 mg/kg per injection
[3]; 40 mg/kg, D8, 11, 14, 17, 20
  BWC (body weight change): −4%
  Optimum T/C (volume of treated tumour versus volume of control tumour): 17* %
[3]; 40 mg/kg
  Toxic deaths (d): 0
[3]
  antitumour activity in terms of reductions in tumour growth: high antitumour activity
[4]; 40 mg/kg
  BWC D13: −7%
[4]; 40 mg/kg, deaths on day 15
  Toxic deaths (d): 2/8 (15)
[4]; 40 mg/kg, on day 27
  Optimum T/C (on day): 5 (27)* %
[4]; 60 mg/kg
  Optimum T/C (on day): Toxic
  BWC D13: −9%
[4]; 60 mg/kg, deaths on days 12-24
  Toxic deaths (d): 6/8 (12-24)
[4]; 80 mg/kg
  Optimum T/C (on day): Toxic
  BWC D13: −6%
[4]; 80 mg/kg, deaths on days 16-22
  Toxic deaths (d): 6/8 (16-22)
[4]; oral, 40 mg/kg
  antitumour activity after oral administration: highly active
  tolerability after oral administration: tolerable
[5]
  antitumor effect: Excellent antitumor effect
[5]; [9]
  Optimum T/C: 19* %
  Toxic deaths (d): 0
[5]; IP, 40 mg/kg, D8, 11, 14, 17, 20, D8-15
  BWC D8-15 (body weight change): −1

## Nc1ccn([C@@H]2O[C@H](CO)[C@@H](O)C2(F)F)c(=O)n1 [Gemcitabine, 2′,2′-difluorodeoxycytidine, reference compound]
[2]
  maximum tolerated dose: approximately 120 mg/kg per injection
[6]
  BWC (body weight change): −5%
[7]
  BWC D8-15 (body weight change): −3
[8]; 120 mg/kg
  BWC D13: −16%
[8]; 180 mg/kg
  BWC D13: −22%
[8]; 240 mg/kg
  BWC D13: −21%
[3]; 120 mg/kg, D8, 11, 14, 17, 20
  Optimum T/C (volume of treated tumour versus volume of control tumour): 17* %
[3]; 120 mg/kg, death on day 18
  Toxic deaths (d): 1 (18)
[3]
  antitumour activity in terms of reductions in tumour growth: high antitumour activity
[5]
  antitumor effect: Excellent antitumor effect
[5]; [10]
  Optimum T/C: 15* %
  Toxic deaths (d): 0
